The values that follow come from patent US20180177890A1, “LIGAND-CYTOTOXIC DRUG CONJUGATE, PREPARATION METHOD THEREOF, AND USE THEREOF” (priority 2015, published 2018).

As a reminder, the IC50 is the concentration that gives 50% inhibition.

Numbered stars: 1 amine (or outer) side, 2 acyl side, 3 side chain; on linkers, the order of the positions; unused ones are H or OH. Square brackets hold non-standard residues; d marks the D form. Peptide text beside a SMILES is read from it. X1 = CO[C@H]([C@@H](C)C(=O)[*:2])[C@@H]1C[C@@H]2C[C@@H]2N1[*:1]; Dolaproine = CO[C@@H]([C@@H]1CCCN1)[C@@H](C)C(=O)O; Phe(2,4-Cl2) = N[C@@H](Cc1ccc(Cl)cc1Cl)C(=O)O; Dil = CC[C@H](C)[C@H](NC)[C@@H](CC(=O)O)OC; Phe(3-Cl) = N[C@@H](Cc1cccc(Cl)c1)C(=O)O; Phe(3-F) = N[C@@H](Cc1cccc(F)c1)C(=O)O; Phe(4-Me) = Cc1ccc(C[C@H](N)C(=O)O)cc1; Phe(2-F) = N[C@@H](Cc1ccccc1F)C(=O)O; Phe(2-Me) = Cc1ccccc1C[C@H](N)C(=O)O; 2Thi = N[C@@H](Cc1cccs1)C(=O)O; NMeV = CN[C@H](C(=O)O)C(C)C

The test system of assay [1] is A549 tumor cells. Kind of assay: In vitro tumor cell proliferation inhibition test (CCK-8), A549. The assay is classed as cell-based. Conditions: Homo sapiens, A549, 76 hours incubation. The procedure:
(§1) The objective of this experiment is to test the in vitro inhibition effect of the formula (D) according to the present invention on the proliferation of HepG2 tumor cells (human hepatocellular carcinoma cells, Chinese Academy of Sciences cell bank, No. #TCHu 72) and A549 tumor cells (human lung adenocarcinoma, Chinese Academy of Sciences cell bank, No. #TCHu150). The cells were treated with different concentrations of the compound in vitro. After 76 hours incubation, the cell proliferation was detected by CCK-8 reagent (Cell Counting Kit-8, Dojindo, No. CK04), and the activity of the compound in vitro was evaluated according to the IC50 value.
(§2) The following is an example of a method for in vitro proliferation inhibition test of HepG2 cells for the purpose of exemplifying the test of the compounds according to the present invention for the proliferation inhibitory activity on tumor cells in vitro. This method is also applicable to, but not limited to, the in vitro proliferation inhibition tests on other tumor cells.
(§3) The compound was dissolved with DMSO (dimethylsulfoxide, Shanghai Titan Technology Co., Ltd.) to prepare a storage solution having an initial concentration of 10 mM.
(§4) 10 μl of 10 mM compound was added to the wells of the first column of a U-shaped bottom 96-well plate (sample plate 1), and 90 μl of DMSO was added to each compound sample well of the first column, i.e., the stock solution was diluted 10 times as the starting point. Then, 3-fold gradient dilutions were performed, with each compound concentration […]. The diluent was DMSO solution. 60 μl of 100% DMSO was added to 12th column and 20 μl of 1 mM positive drug control was added to 11th column.
(§5) In a new U-shaped bottom 96-well plate (sample plate 2), each sample from the sample plate 1 was diluted 20 times with the complete medium. Then, in another new U-shaped bottom 96-well plate (sample plate 3), each well sample from the sample plate 2 was subjected to a final 10-fold dilution.
(§6) After the cell pre-culture was completed, the 96-well cell culture plate was removed and the supernatant was discarded. Each sample dilution in the 96-well sample plate 3 was successively added to a 96-well cell culture plate at 100 μl/well. Each compound sample was tested in duplicate at each concentration. […] After completion of the loading operation, the 96-well cell culture plate was incubated at 37° C. for about 76 hours in a 5% CO2 incubator.
(§7) The 96-well cell culture plate was taken and CCK-8 was added to each well at […]. The cell culture plate was gently pat and mixed for more than 10 times and incubated at 37° C. for 2 hours in a 5% CO2 incubator.
(§8) The 96-well cell culture plate was taken and placed in a microplate reader (PerkinElmer, VICTOR 3) and the absorbance at 450 nm was measured using the microplate reader.
In accordance with the above procedure, the inhibition activity of the compound according to the present invention on the proliferation of A549 tumor cells in vitro was tested. The cell culture medium was also DMEM/F12.
(§9) Data was analyzed with Microsoft Excel and Graphpad Prism 5.

Assay [2] has as its system HepG2 tumor cells. In words: In vitro tumor cell proliferation inhibition test (CCK-8), HepG2. The assay is classed as cell-based. To be noted: Homo sapiens, HepG2, 76 hours incubation. The procedure: as §1, §2
HepG2 cells in logarithmic growth phase were washed with PBS (phosphate buffer, ThermoFisher) once, and added with 2-3 ml trypsin (0.25% trypsin-EDTA (1×), Gibico, Life Technologies) to digest for 2-3 min. Then, 10-15 ml of cell culture medium (DMEM/F12 medium, Invitrogen; 10% (v/v)) was added after the cells were completely digested. The digested HepG2 cells were eluted, and centrifuged at 1000 rpm for 3 min. The supernatant was discarded, and then 10-20 ml of cell culture medium were added to resuspend the cells to prepare a single cell suspension.
The HepG2 single cell suspension was mixed and the cell density was adjusted to 6×10^4 cells/ml with cell culture medium. The density-adjusted cell suspension was mixed uniformly and added to a 96-well cell culture plate at 100 μl/well. The plates were incubated in a 5% CO2 incubator at 37° C. for 18-20 hours.
as §3, §4, §5, §6, §7, §8, §9

In assay [3] the test system is NCI-N87 cells (HER2 overexpressing human gastric cancer cells). Kind of assay: Tumor inhibition rate test of NCI-N87 transplanted tumor in nude mice. The assay is classed as in vivo. To be noted: 60 mg/kg (first dose doubling), IV. From the text:
To evaluate and compare the effect of antibody-cytotoxin conjugates according to the present invention on transplanted tumors of NCI-N87 cells (HER2 overexpressing human gastric cancer cells, ATCC, CRL-5822) in nude mice. […] Preparation method: all prepared with physiological saline. […] Feeding environment: SPF level. […] T/C (%)=(T−T0)/(C−C0)×100%, wherein T and C represent the tumor volume at the end of the experiment; T0 and C0 represent the tumor volume at the beginning of the experiment. […] The number of mice at the beginning of the experiment was as follows: Control group n=12, Treatment group n=6.

Turning to `CC[C@H](C)[C@@H]([C@@H](CC(=O)N1[C@H]2C[C@H]2C[C@H]1[C@H](OC)[C@@H](C)C(=O)N[C@@H](Cc1cccs1)C(=O)O)OC)N(C)C(=O)[C@@H](NC(=O)[C@@H](NC)C(C)C)C(C)C` [Compound 16, (S)-2-((2R,3R)-3-((1S,3S,5S)-2-((3R,4S,5S)-4-((S)—N,3-dimethyl-2-((S)-3-methyl-2-(methylamino)butanamido)butanamido)-3-methoxy-5-methylheptanoyl)-2-azabicyclo[3.1.0]hexan-3-yl)-3-methoxy-2-methylpropanamido)-3-(thiophen-2-yl)propanoic acid] (H-[NMeV]V[Dil][X1][2Thi]-OH), the results for the IC50 in assay [1] and in assay [2] were 53 nM and 13.9 nM, respectively.

As to `CC[C@H](C)[C@@H]([C@@H](CC(=O)N1CCC[C@H]1[C@H](OC)[C@@H](C)C(=O)N[C@@H](Cc1ccccc1F)C(=O)O)OC)N(C)C(=O)[C@@H](NC(=O)[C@@H](NC)C(C)C)C(C)C` [Compound 25, (S)-2-((2R,3R)-3-((S)-1-((3R,4S,5S)-4-((S)—N,3-dimethyl-2-((S)-3-methyl-2-(methylamino)butanamido)butanamido)-3-methoxy-5-methylheptanoyl)pyrrolidin-2-yl)-3-methoxy-2-methylpropanamido)-3-(2-fluorophenyl)propanoic acid] (H-[NMeV]V[Dil][Dolaproine][Phe(2-F)]-OH), the values for the IC50 in assay [1] and in assay [2] were 200 nM and 175 nM, respectively.

`CC[C@H](C)[C@@H]([C@@H](CC(=O)N1CCC[C@H]1[C@H](OC)[C@@H](C)C(=O)N[C@@H](Cc1ccc(C)cc1)C(=O)O)OC)N(C)C(=O)[C@@H](NC(=O)[C@@H](NC)C(C)C)C(C)C` [Compound 29, (S)-2-((2R,3R)-3-((S)-1-((3R,4S,5S)-4-((S)—N,3-dimethyl-2-((S)-3-methyl-2-(methylamino)butanamido)butanamido)-3-methoxy-5-methylheptanoyl)pyrrolidin-2-yl)-3-methoxy-2-methylpropanamido)-3-(p-tolyl)propanoic acid] (H-[NMeV]V[Dil][Dolaproine][Phe(4-Me)]-OH): the IC50 in assay [1] is 1.8 nM; in assay [2], 58.6 nM.

For `CC[C@H](C)[C@@H]([C@@H](CC(=O)N1CCC[C@H]1[C@H](OC)[C@@H](C)C(=O)N[C@@H](Cc1cccc(Cl)c1)C(=O)O)OC)N(C)C(=O)[C@@H](NC(=O)[C@@H](NC)C(C)C)C(C)C` [Compound 31, (S)-3-(3-chlorophenyl)-2-((2R,3R)-3-((S)-1-((3R,4S,5S)-4-((S)—N,3-dimethyl-2-((S)-3-methyl-2-(methylamino)butanamido)butanamido)-3-methoxy-5-methylheptanoyl)pyrrolidin-2-yl)-3-methoxy-2-methylpropanamido)propanoic acid] (H-[NMeV]V[Dil][Dolaproine][Phe(3-Cl)]-OH), the IC50 in assay [1] was found to be 130 nM; in assay [2], 100 nM.

For `CC[C@H](C)[C@@H]([C@@H](CC(=O)N1CCC[C@H]1[C@H](OC)[C@@H](C)C(=O)N[C@@H](Cc1cccc(F)c1)C(=O)O)OC)N(C)C(=O)[C@@H](NC(=O)[C@@H](NC)C(C)C)C(C)C` [Compound 32, (S)-2-((2R,3R)-3-((S)-1-((3R,4S,5S)-4-((S)—N,3-dimethyl-2-((S)-3-methyl-2-(methylamino)butanamido)butanamido)-3-methoxy-5-methylheptanoyl)pyrrolidin-2-yl)-3-methoxy-2-methylpropanamido)-3-(3-fluorophenyl)propanoic acid] (H-[NMeV]V[Dil][Dolaproine][Phe(3-F)]-OH), the IC50 is 13.5 nM in assay [1] and 17.4 nM in assay [2].

Regarding `CC[C@H](C)[C@@H]([C@@H](CC(=O)N1CCC[C@H]1[C@H](OC)[C@@H](C)C(=O)N[C@@H](Cc1ccc(Cl)cc1Cl)C(=O)O)OC)N(C)C(=O)[C@@H](NC(=O)[C@@H](NC)C(C)C)C(C)C` [Compound 33, (S)-3-(2,4-dichlorophenyl)-2-((2R,3R)-3-((S)-1-((3R,4S,5S)-4-((S)-N,3-dimethyl-2-((S)-3-methyl-2-(methylamino)butanamido)butanamido)-3-methoxy-5-methylheptanoyl)pyrrolidin-2-yl)-3-methoxy-2-methylpropanamido)propanoic acid] (H-[NMeV]V[Dil][Dolaproine][Phe(2,4-Cl2)]-OH), the half-maximal inhibitory concentration (IC50) in assay [1] is 5 nM; in assay [2], 4.66 nM.

Consider `CC[C@H](C)[C@@H]([C@@H](CC(=O)N1CCC[C@H]1[C@H](OC)[C@@H](C)C(=O)N[C@@H](Cc1ccccc1C)C(=O)O)OC)N(C)C(=O)[C@@H](NC(=O)[C@@H](NC)C(C)C)C(C)C` [Compound 34, (S)-2-((2R,3R)-3-((S)-1-((3R,4S,5S)-4-((S)—N,3-dimethyl-2-((S)-3-methyl-2-(methylamino)butanamido)butanamido)-3-methoxy-5-methylheptanoyl)pyrrolidin-2-yl)-3-methoxy-2-methylpropanamido)-3-(o-tolyl)propanoic acid] (H-[NMeV]V[Dil][Dolaproine][Phe(2-Me)]-OH), for which the figures for the IC50 in assay [1] and in assay [2] were 32.3 nM and 18.3 nM, respectively.

With `CC[C@H](C)[C@@H]([C@@H](CC(=O)N1CCC[C@H]1[C@H](OC)[C@@H](C)C(=O)N[C@@H](Cc1cccs1)C(=O)O)OC)N(C)C(=O)[C@@H](NC(=O)[C@@H](NC)C(C)C)C(C)C` [Compound 35, (S)-2-((2R,3R)-3-((S)-1-((3R,4S,5S)-4-((S)—N,3-dimethyl-2-((S)-3-methyl-2-(methylamino)butanamido)butanamido)-3-methoxy-5-methylheptanoyl)pyrrolidin-2-yl)-3-methoxy-2-methylpropanamido)-3-(thiophen-2-yl)propanoic acid] (H-[NMeV]V[Dil][Dolaproine][2Thi]-OH), the IC50 in assay [1] was found to be 18 nM; in assay [2], 30.6 nM.

For the molecule Pertuzumab, in assay [3] (D0, 7, D0 = time of first administration), the “Mean tumor volume (mm^3) D0” value is recorded as 115.5 mm^3. Moreover, in assay [3] (D0, 7, D21), the “% T/C D21” value is 42%, the “% tumor inhibition rate D21” value was 58% and the “Mean tumor volume (mm^3) D21” value came out at 380.1 mm^3.
